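Growth conditions: 96-well plates. Treatment: test compound, 48 hours, 5 concentrations. Analysis: linear interpolation between bracketing concentrations; unreached endpoints set to highest concentration. Abbreviation: GI50, concentration required for 50% inhibition of growth.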 Calls of active or inactive are those of the source. Rule as the data show it: active = GI50 up to about 1.1 µM and inactive = higher.
What was measured:
Experiment in all cases: NCI-60 cell line screen, 48 h
A498 = system: A498
MOLT-4 = system: MOLT-4
HCT-116 = system: HCT-116
SNB-78 = system: SNB-78
A549 = system: A549
SN12C = system: SN12C
M19-MEL = system: M19-MEL
SR = system: SR
UACC-257 = system: UACC-257
NCI-H522 = system: NCI-H522
OVCAR-3 = system: OVCAR-3
RPMI-8226 = system: RPMI-8226
786-0 = system: 786-0
DMS-114 = system: DMS-114
CCRF-CEM = system: CCRF-CEM
K562 = system: K562
SK-MEL-28 = system: SK-MEL-28
KM12 = system: KM12

Compound	GI50 (A498)	GI50 (MOLT-4)	GI50 (HCT-116)	GI50 (SNB-78)	GI50 (A549)	GI50 (SN12C)	GI50 (M19-MEL)	GI50 (SR)	GI50 (UACC-257)	GI50 (NCI-H522)	GI50 (OVCAR-3)	GI50 (RPMI-8226)	GI50 (786-0)	GI50 (DMS-114)	GI50 (CCRF-CEM)	GI50 (K562)	GI50 (SK-MEL-28)	GI50 (KM12)
CNC(=O)OCc1nccc2c(C)c3[nH]c4ccc(OC)cc4c3cc12	6.7 µM (inactive)	0.705 µM (active)	1.95 µM (inactive)	16.6 µM (inactive)	4.9 µM (inactive)	19.1 µM (inactive)	5.61 µM (inactive)	0.218 µM (active)	11.3 µM (inactive)	5.09 µM (inactive)	21.9 µM (inactive)	2.59 µM (inactive)	3.78 µM (inactive)	2.92 µM (inactive)	1.51 µM (inactive)	2.7 µM (inactive)	9.73 µM (inactive)	3.78 µM (inactive)
CC(=O)c1ccc(NC(=O)/C(CC(=O)c2sc(-c3cccnc3)nc2C)=N/NC(N)=O)cc1	31.5 µM (inactive)	19.3 µM (inactive)	22.6 µM (inactive)	> 100 µM (inactive)	22.5 µM (inactive)	51.6 µM (inactive)	> 100 µM (inactive)	33.1 µM (inactive)	> 10 µM (inactive)	98.4 µM (inactive)	> 100 µM (inactive)	23.5 µM (inactive)	27.9 µM (inactive)	> 100 µM (inactive)	21.6 µM (inactive)	> 100 µM (inactive)	> 100 µM (inactive)	> 100 µM (inactive)
Cc1ccccc1NC(=O)/C(=N/NC(=O)CC#N)C1C(=O)N(c2ccccc2)N=C1N (stereo not given)	> 100 µM (inactive)	72.9 µM (inactive)	> 100 µM (inactive)	> 100 µM (inactive)	> 100 µM (inactive)	> 100 µM (inactive)	> 100 µM (inactive)	52.1 µM (inactive)	> 100 µM (inactive)	57.1 µM (inactive)	> 100 µM (inactive)	96.2 µM (inactive)	> 100 µM (inactive)	> 100 µM (inactive)	31.3 µM (inactive)	75.5 µM (inactive)	> 100 µM (inactive)	> 100 µM (inactive)
CC1=CP(=O)(OC(C)C)CC(C)=C1Cl (stereo not given)	> 100 µM (inactive)	32.7 µM (inactive)	> 100 µM (inactive)	> 100 µM (inactive)	> 100 µM (inactive)	> 100 µM (inactive)	> 100 µM (inactive)	41.1 µM (inactive)	> 100 µM (inactive)	52.6 µM (inactive)	> 100 µM (inactive)	94.8 µM (inactive)	> 100 µM (inactive)	> 100 µM (inactive)	34.4 µM (inactive)	> 100 µM (inactive)	> 100 µM (inactive)	> 100 µM (inactive)
CCOC(=O)C1=C(C)NC(=S)NC1c1ccccc1 (stereo not given)	> 100 µM (inactive)	59.6 µM (inactive)	> 59 µM (inactive)	> 100 µM (inactive)	> 100 µM (inactive)	> 100 µM (inactive)	> 43.9 µM (inactive)	21.8 µM (inactive)	> 100 µM (inactive)	> 63.8 µM (inactive)	> 100 µM (inactive)	33.9 µM (inactive)	> 100 µM (inactive)	> 39.9 µM (inactive)	> 45.1 µM (inactive)	50 µM (inactive)	> 100 µM (inactive)	> 100 µM (inactive)
